This note sets out measurements from ChEMBL document CHEMBL5291721, “A preclinical secondary pharmacology resource illuminates target-adverse drug reaction associations of marketed drugs” (Nat Commun, 2023).

One test has as its target T1, Adenosine receptor A3 (Homo sapiens, UniProt P0DMS8).
T1 sequence (P0DMS8 whole entry): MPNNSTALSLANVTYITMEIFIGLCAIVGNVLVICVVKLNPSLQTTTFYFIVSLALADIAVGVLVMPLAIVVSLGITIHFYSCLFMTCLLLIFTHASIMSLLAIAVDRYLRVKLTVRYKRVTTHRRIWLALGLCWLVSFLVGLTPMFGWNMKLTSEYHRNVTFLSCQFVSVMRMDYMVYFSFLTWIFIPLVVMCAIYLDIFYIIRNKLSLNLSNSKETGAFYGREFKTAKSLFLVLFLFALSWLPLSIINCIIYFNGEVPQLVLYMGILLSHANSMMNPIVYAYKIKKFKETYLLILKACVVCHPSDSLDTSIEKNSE

The target in test [1] is T2, Alpha-2A adrenergic receptor (Homo sapiens, UniProt P08913).
T2 sequence (P08913 whole entry): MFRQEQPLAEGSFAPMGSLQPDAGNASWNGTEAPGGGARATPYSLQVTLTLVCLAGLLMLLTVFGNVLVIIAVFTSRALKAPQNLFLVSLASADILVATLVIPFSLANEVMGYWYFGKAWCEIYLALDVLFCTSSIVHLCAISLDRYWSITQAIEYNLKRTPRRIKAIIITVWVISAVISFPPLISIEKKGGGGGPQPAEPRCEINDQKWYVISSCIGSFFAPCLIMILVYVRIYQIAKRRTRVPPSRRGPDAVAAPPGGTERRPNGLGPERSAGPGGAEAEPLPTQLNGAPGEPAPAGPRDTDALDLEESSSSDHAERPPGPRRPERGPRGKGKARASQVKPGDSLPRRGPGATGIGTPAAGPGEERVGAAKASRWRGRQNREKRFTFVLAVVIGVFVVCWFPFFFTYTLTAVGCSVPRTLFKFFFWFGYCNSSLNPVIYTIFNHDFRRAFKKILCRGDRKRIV
Type of test: functional, cell-based.

The target of test [2] is T3, Cholecystokinin receptor type A (Homo sapiens, UniProt P32238).
T3 sequence (P32238 whole entry): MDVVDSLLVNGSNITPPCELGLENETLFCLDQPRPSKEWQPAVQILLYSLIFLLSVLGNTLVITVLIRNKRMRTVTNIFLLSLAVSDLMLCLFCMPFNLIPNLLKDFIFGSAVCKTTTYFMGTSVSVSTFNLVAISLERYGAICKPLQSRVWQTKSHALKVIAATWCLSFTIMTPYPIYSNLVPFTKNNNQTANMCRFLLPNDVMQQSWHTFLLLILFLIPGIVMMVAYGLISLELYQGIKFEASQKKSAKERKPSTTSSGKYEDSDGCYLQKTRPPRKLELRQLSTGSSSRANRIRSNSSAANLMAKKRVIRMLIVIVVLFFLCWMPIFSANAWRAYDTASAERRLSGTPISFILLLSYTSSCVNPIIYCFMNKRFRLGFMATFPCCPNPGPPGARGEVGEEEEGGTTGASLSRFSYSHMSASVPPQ

For test [3], the target named is T4, Muscarinic acetylcholine receptor M2 (Homo sapiens, UniProt P08172).
T4 sequence (P08172 whole entry): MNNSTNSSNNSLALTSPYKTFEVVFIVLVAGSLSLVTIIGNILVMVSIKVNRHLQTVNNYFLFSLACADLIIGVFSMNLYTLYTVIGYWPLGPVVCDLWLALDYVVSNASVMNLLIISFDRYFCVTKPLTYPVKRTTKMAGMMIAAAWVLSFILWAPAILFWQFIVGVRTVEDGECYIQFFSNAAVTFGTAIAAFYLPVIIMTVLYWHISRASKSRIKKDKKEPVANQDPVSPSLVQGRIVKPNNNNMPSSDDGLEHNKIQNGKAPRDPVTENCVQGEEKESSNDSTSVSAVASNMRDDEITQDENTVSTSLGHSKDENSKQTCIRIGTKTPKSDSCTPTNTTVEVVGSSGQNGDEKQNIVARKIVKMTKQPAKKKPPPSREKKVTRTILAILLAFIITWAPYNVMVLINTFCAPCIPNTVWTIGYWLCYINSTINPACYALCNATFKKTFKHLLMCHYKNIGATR
Type of test: functional, cell-based.

The target of test [4] is Glutamate receptor ionotropic, NMDA 1 (Rattus norvegicus, UniProt P35439).
A further test concerns the target Histamine H2 receptor (Homo sapiens, UniProt P25021). It is filed as functional, cell-based.
Test [5] concerns the target 3',5'-cyclic-AMP phosphodiesterase 4D (Homo sapiens, UniProt Q08499). It is filed as functional.
For test [6], the target named is T5, Equilibrative nucleoside transporter 1 (Homo sapiens, UniProt Q99808).
T5 sequence (Q99808 whole entry): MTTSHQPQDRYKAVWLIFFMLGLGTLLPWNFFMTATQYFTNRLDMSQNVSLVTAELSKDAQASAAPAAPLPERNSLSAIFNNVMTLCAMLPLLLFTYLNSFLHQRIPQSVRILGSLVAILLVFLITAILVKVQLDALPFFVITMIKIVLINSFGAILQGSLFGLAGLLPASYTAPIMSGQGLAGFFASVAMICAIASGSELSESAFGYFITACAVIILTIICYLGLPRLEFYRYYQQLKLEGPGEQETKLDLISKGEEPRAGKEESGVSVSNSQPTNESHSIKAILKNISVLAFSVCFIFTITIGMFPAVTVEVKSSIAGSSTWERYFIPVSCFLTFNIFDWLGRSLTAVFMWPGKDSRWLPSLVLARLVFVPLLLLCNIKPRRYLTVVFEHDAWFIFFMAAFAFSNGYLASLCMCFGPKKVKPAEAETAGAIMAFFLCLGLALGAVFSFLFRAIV

The target of another test is T6, Thromboxane A2 receptor (Homo sapiens, UniProt P21731).
T6 sequence (P21731 whole entry): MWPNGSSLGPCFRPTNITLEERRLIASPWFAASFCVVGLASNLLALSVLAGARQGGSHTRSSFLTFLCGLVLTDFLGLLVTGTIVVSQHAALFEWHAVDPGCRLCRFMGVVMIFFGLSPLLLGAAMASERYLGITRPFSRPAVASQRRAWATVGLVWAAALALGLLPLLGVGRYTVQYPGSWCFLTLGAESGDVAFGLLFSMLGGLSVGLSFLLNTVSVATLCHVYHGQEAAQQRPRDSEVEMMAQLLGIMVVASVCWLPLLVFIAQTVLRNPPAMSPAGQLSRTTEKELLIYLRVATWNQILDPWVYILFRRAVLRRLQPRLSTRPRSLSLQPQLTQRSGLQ

Test [7] concerns the target Sodium-dependent dopamine transporter (Homo sapiens, UniProt Q01959).
The target of a further test is Histamine H3 receptor (Homo sapiens, UniProt Q9Y5N1).
Note: assay procedure not described here.

Chain of Histamine H2 receptor (P25021 whole entry): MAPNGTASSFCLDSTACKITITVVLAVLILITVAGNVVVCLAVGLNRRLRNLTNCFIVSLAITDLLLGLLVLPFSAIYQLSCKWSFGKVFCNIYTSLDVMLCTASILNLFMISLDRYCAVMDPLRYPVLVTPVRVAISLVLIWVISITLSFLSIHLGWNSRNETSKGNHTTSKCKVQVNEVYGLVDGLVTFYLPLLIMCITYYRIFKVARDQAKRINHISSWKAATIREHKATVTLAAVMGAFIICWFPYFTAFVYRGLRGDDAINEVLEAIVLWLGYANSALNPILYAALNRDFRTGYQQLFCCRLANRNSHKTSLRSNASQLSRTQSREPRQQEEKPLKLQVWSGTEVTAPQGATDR
Chain of 3',5'-cyclic-AMP phosphodiesterase 4D (Q08499 whole entry): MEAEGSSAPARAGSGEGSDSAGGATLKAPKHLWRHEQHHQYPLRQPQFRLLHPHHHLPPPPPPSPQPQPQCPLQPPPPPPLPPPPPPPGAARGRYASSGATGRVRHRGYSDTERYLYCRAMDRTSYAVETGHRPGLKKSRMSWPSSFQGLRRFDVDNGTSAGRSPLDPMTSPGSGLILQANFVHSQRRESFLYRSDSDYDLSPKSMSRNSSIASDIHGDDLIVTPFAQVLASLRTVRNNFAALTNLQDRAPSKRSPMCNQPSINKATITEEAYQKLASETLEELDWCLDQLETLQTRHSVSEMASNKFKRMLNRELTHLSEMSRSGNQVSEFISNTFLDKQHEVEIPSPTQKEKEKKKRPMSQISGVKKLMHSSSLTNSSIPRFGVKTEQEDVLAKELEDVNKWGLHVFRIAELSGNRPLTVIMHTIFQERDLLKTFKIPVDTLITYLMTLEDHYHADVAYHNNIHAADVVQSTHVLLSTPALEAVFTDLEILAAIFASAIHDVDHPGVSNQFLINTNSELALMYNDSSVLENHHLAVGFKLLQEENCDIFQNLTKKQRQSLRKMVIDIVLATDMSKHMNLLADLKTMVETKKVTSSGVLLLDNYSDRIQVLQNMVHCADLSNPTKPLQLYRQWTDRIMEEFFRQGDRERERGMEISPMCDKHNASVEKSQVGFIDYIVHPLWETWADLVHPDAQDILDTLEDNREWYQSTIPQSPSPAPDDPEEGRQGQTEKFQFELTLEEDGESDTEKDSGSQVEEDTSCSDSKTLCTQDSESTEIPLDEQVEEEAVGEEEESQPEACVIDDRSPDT
Chain of Histamine H3 receptor (Q9Y5N1 whole entry): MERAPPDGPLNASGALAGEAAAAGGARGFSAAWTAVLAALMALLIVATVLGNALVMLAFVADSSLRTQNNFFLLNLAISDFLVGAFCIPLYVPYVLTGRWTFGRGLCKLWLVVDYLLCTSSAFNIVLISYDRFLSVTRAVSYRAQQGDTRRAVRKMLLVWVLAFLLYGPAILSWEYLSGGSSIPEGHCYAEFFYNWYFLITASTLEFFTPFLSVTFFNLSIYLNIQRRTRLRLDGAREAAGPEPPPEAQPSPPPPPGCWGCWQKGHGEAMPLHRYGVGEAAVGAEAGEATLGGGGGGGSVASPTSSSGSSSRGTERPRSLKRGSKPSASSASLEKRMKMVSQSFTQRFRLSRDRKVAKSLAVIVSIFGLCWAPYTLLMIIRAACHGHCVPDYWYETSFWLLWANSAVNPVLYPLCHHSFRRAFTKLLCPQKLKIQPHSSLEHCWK
Chain of Sodium-dependent dopamine transporter (Q01959 whole entry): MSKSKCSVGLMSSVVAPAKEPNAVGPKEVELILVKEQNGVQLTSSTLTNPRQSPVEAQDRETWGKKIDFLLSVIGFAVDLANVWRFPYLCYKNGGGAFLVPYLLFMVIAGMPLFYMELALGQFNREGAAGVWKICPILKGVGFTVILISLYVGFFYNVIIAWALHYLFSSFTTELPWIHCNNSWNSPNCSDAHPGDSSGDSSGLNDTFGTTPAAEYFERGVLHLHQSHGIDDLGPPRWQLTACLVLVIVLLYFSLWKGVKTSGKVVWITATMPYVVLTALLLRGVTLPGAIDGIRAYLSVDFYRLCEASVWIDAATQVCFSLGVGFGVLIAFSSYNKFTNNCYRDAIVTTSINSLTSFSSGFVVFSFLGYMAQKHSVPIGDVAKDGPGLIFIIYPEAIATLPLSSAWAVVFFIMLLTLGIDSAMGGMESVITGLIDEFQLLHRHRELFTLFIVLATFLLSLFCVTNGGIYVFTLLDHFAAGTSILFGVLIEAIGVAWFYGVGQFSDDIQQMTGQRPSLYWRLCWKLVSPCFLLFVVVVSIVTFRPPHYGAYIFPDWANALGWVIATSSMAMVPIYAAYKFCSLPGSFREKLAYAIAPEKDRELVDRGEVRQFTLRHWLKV

For `CC(=O)N[C@@H](CS)C(=O)O` [ACETYLCYSTEINE], the AC50 (at Adenosine receptor A3; in test [1]; in test [2]; in test [3]; in [4]; at Histamine H2 receptor) was more than 30 µM each time. Besides, the half-maximal activity concentration (AC50) (in test [5]; in test [6]; at Thromboxane A2 receptor; in [7]; at Histamine H3 receptor) was more than 30 µM throughout.
With `C=CCNc1nc(NCC=C)nc(N2CCN(C(c3ccc(F)cc3)c3ccc(F)cc3)CC2)n1` [ALMITRINE], the AC50 (at Adenosine receptor A3; in [1]; in test [2]; in [3]; in test [4]; at Histamine H2 receptor) was more than 30 µM throughout. The AC50 (in [5]; in test [6]; at Thromboxane A2 receptor; in test [7]; at Histamine H3 receptor) was more than 30 µM each time.
For the molecule `CN1CCC(=C2c3ccccc3CCc3cccnc32)CC1` [AZATADINE], the AC50 (in general, the midpoint of the concentration-response curve, whichever way the signal moves) was more than 30 µM on Adenosine receptor A3; more than 10 µM in [1]; more than 30 µM in test [2]; more than 10 µM in test [3]; more than 10 µM in test [4]; more than 10 µM on Histamine H2 receptor. In addition, the AC50 in [5] is more than 30 µM; in [6], more than 30 µM; on Thromboxane A2 receptor, more than 30 µM; in test [7] it was more than 30 µM; at Histamine H3 receptor, more than 10 µM.
As for `CC(C)COCC(CN(Cc1ccccc1)c1ccccc1)N1CCCC1` (stereo not drawn) [BEPRIDIL], the AC50 is more than 30 µM in test [1]; 23.2 µM in [2]; more than 30 µM in [3]; more than 30 µM in [4]; more than 30 µM at Histamine H2 receptor; more than 30 µM in [5]. The AC50 in test [6] was more than 30 µM; on Thromboxane A2 receptor, more than 30 µM; in [7], 16.2 µM; on Histamine H3 receptor it was more than 30 µM.
Take `CCCCC(=O)O[C@]1(C(=O)CO)[C@@H](C)C[C@H]2[C@@H]3CCC4=CC(=O)C=C[C@]4(C)[C@@]3(F)[C@@H](O)C[C@@]21C` [BETAMETHASONE VALERATE]: the AC50 on Adenosine receptor A3 is more than 30 µM; in test [1], more than 10 µM; in [2], more than 30 µM; in test [3], more than 10 µM; in [4] it was more than 10 µM; at Histamine H2 receptor it was more than 10 µM. Besides, the AC50 in test [5] is more than 30 µM; in [6] it was more than 30 µM; on Thromboxane A2 receptor it was more than 30 µM; in test [7], more than 30 µM; at Histamine H3 receptor, more than 10 µM.
`COCC1=C(C(=O)O)N2C(=O)[C@@H](NC(=O)/C(=N\OC)c3csc(N)n3)[C@H]2SC1` [CEFPODOXIME]: the AC50 (on Adenosine receptor A3; in test [1]; in [2]; in test [3]; in test [4]; at Histamine H2 receptor) was more than 30 µM each time. Moreover, the AC50 (in test [5]; in test [6]; on Thromboxane A2 receptor; in [7]; at Histamine H3 receptor) was more than 30 µM each time.
For the molecule `CNC1=Nc2ccc(Cl)cc2C(c2ccccc2)=[N+]([O-])C1` [CHLORDIAZEPOXIDE], the AC50 is more than 10 µM in test [1]; more than 30 µM in test [2]; more than 10 µM in [3]; more than 10 µM in [4]; more than 30 µM on Histamine H2 receptor; more than 10 µM in test [5]. The AC50 in test [6] was more than 30 µM; at Thromboxane A2 receptor it was more than 30 µM; in test [7] it was more than 30 µM; at Histamine H3 receptor it was more than 10 µM.
On to `COc1cc(N)c(Cl)cc1C(=O)NC1CCN(Cc2ccccc2)CC1` [CLEBOPRIDE], for which the AC50 at Adenosine receptor A3 was more than 30 µM; in [1] it was 14 µM; in test [2] it was more than 30 µM; in test [3], more than 30 µM; in test [4] it was more than 30 µM; on Histamine H2 receptor it was more than 30 µM. The AC50 is 2.9 µM in test [5]; more than 30 µM in [6]; more than 30 µM at Thromboxane A2 receptor; 22 µM in test [7]; more than 30 µM on Histamine H3 receptor.
As for `Nc1ncn([C@H]2C[C@H](O)[C@@H](CO)O2)c(=O)n1` [DECITABINE], the AC50 (at Adenosine receptor A3; in test [1]; in test [2]; in [3]; in test [4]; at Histamine H2 receptor) was more than 30 µM throughout. Further, the AC50 (in test [5]; in [6]; on Thromboxane A2 receptor; in [7]; on Histamine H3 receptor) was more than 30 µM throughout.
Regarding `CC(C)(C)C(=O)OCC(=O)[C@H]1CC[C@H]2[C@@H]3CCC4=CC(=O)CC[C@]4(C)[C@H]3CC[C@]12C` [DESOXYCORTICOSTERONE PIVALATE], the half-maximal activity concentration (AC50) (at Adenosine receptor A3; in [1]; in [2]; in [3]; in test [4]; on Histamine H2 receptor) was more than 10 µM throughout. The AC50 in test [5] was more than 30 µM; in [6], more than 10 µM; at Thromboxane A2 receptor, more than 10 µM; in test [7], more than 10 µM; on Histamine H3 receptor, more than 10 µM.
Take `OC1(c2ccc(Cl)cc2)c2ccccc2C2=NCCN21` (stereo not drawn) [MAZINDOL]: the AC50 on Adenosine receptor A3 is 9.6 µM; in [1] it was more than 30 µM; in test [2] it was more than 30 µM; in test [3], more than 30 µM; in test [4], more than 30 µM; on Histamine H2 receptor, more than 10 µM. The AC50 (in [5]; in test [6]; on Thromboxane A2 receptor; on Histamine H3 receptor) was more than 30 µM in each case.
